The compounds below were run against T1, Purine nucleoside phosphorylase (Homo sapiens) (UniProt P00491) (assay: Second order rate constant for the inactivation of Purine Nucleoside Phosphorylase by compound in 0.05 M Phosphate Buffer and at a pH 7.4 (u=0.1 KCl) at 30.0 degree Centigrade).
T1 sequence (whole entry): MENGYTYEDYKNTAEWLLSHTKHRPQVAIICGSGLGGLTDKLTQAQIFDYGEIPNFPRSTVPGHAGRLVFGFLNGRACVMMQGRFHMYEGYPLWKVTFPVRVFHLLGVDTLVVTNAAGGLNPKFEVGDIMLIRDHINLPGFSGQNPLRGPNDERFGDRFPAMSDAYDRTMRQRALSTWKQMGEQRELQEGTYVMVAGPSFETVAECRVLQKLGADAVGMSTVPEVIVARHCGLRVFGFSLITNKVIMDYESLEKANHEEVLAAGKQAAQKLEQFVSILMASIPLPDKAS

Structure (SMILES) | k [M⁻¹ s⁻¹]
O=C1C=CC(=O)c2c(O)ncnc21 | 1.62
O=C1C=CC(=O)c2c(O)nc(CBr)nc21 | 3.7
Nc1nc(O)c2c(n1)C(=O)C=CC2=O | 4.73
C=Cc1nc(O)c2c(n1)C(=O)C=CC2=O | 3.1
O=C1C=CC(=O)c2c(O)nc(CCBr)nc21 | 7.97
O=C1C=CC(=O)c2c(O)nc(-c3ccccc3)nc21 | 15.9
